We go through two compounds from patent publication US10591487B2, “Small molecule detection and localization method based on MALDI imaging mass spectrometry” (INDUSTRY-ACADEMIC COOPERATION FOUNDATION, YONSEI UNIVERSITY, priority 2015, dated 2020).

One data set deals with CD31. Nature of the data set: Expression level of CD31 by immunohistochemical analysis of cancer cell. The data set is classed as in vivo, mice. The settings on record: cancer tissue after dosing voacangine or sunitinib; FIGS. 14 and 15. How it is done: Immunohistochemical analysis was performed to find an effect of voacangine against pathological angiogenesis of a cancer cell.
CD31 or Platelet Endothelial Cell Adhesion Molecule-1 (PECAM-1) are known as being expressed on the surface of a hematoblast such as platelet and naive T cell, natural killer cell, granulocyte, monocyte and cell-to-cell junction of endothelial as transmembrane glycoprotein of 130 kDa type belonging to immunoglobulin super-family.

The nature of data set [1]: Voacangine distribution in tumors, livers and kidneys by MALDI imaging mass spectrometry. Type of data set: in vivo, mice. Particulars: four hours after treating voacangine, FIG. 5. From the text: After surgically removing tumors, livers, and kidneys from mouse models after four hours after treating voacangine in Embodiment 3, a specimen was manufactured to perform MALDI mass spectrometry and immunofluorescence with H&E straining and the result was shown in FIG. 5.

Data set [2] deals with Human Umbilical Vascular Endothelial Cell (HUVEC). Nature of the data set: In vitro and in vivo angiogenesis inhibition (cell-based HUVEC screening). Particulars: nontoxic dose, earlier finding of the inventors. From the text: The inventors screened 300 crude extracts which are taken from a natural plant that is effective in proliferating Human Umbilical Vascular Endothelial Cell (HUVEC) by using a cell-based screening technique.

The test system of data set [3] is capsaicin-induced contraction. The settings on record: isolated mouse rectum; J. Nat. Med. 65 (2011) 157-165; cited from earlier work.
In another data set the test system is HIF-1α. Nature of the data set: Expression level of HIF-1α. Particulars: earlier finding of the inventors.
A further data set has as its system VEGF. Nature of the data set: Expression level of VEGF, target gene of HIF-1α. The settings on record: earlier finding of the inventors.
The next data set deals with U87MG. Briefly: Variation of cancer size in U87MG cancer-diseased animal model. Particulars: U87MG xenograft mice; voacangine 10 mg/kg i.p. every day for 12 days; compared with vehicle and sunitinib 40 mg/kg p.o.; FIG. 4.

Description for U87MG: A cell strain U87MG, which is a kind of human glioglastoma multiforme purchased from American Type Culture Collection (ATCC), was cultivated in a medium to which Phosphate-Buffered Saline (PBS): Matrigel (1:1) is added.
The cultivated cell strain U87MG of 5×10^6 was merged with PBS:Matrigel (1:1) of 100 μl and the mixture was injected into athymic nude mice for two weeks to induce growth of a cancer cell.

With `CCN(CC)CCNC(=O)c1c(C)[nH]c(/C=C2\C(=O)Nc3ccc(F)cc32)c1C` [sunitinib, Sunitinib malate, reference compound], the CD31 expression result with CD31 is recorded as “greatly reduced in expression”.
With `CC[C@H]1C[C@@H]2C[N@]3CCc4c([nH]c5ccc(OC)cc45)[C@](C(=O)OC)(C2)C13` [voacangine], the “localization of voacangine in livers, kidneys and cancer cells” value in data set [1] was “more concentrated in the cancer cells than the livers and kidneys”. The CD31 expression result in the data set on CD31 is “greatly reduced in expression”. Besides, the angiogenesis inhibition result in data set [2] was “inhibiting in vitro and in vivo angiogenesis by a nontoxic dose”. In data set [3], the capsaicin-induced contraction entry is reported as “dose-dependently inhibiting”. Further, the “expression level of HIF-1α” value with HIF-1α is reported as “dose-dependently inhibited”. For the same compound, the “expression level of VEGF” value in the data set with VEGF was “dose-dependently inhibited”. For the same compound, the “cancer size after dosage” value in the data set on U87MG is “greatly reduced”.
